In ChEMBL document CHEMBL4402538, “Mycobacterial tryptophan biosynthesis: A promising target for tuberculosis drug development?” (Bioorg Med Chem Lett, 2019):
In brackets after ≈: the same amount, converted by molar mass.

Assays:
[1] = system: Mycobacterium tuberculosis; experiment: Antimycobacterial activity against isoniazid/streptomycin resistant Mycobacterium tuberculosis 01-R0348 incubated for 2 weeks; type: functional; settings: 01-R0348, 336 h
[2] = system: Mycobacterium tuberculosis; experiment: Antimycobacterial activity against ofloxacin/isoniazid resistant Mycobacterium tuberculosis CI-14 incubated for 2 weeks; type: functional; settings: CI-14, 336 h
[3] = system: Mycobacterium tuberculosis; experiment: Antimycobacterial activity against ofloxacin resistant Mycobacterium tuberculosis CI-10 incubated for 2 weeks; type: functional; settings: CI-10, 336 h
[4] = system: Mycobacterium tuberculosis; experiment: Antimycobacterial activity against isoniazid resistant Mycobacterium tuberculosis BAA-812 incubated for 2 weeks; type: functional; settings: BAA-812, 336 h
[5] = system: Mycobacterium tuberculosis; experiment: Antimycobacterial activity against streptomycin resistant Mycobacterium tuberculosis 98-01436 incubated for 2 weeks; type: functional; settings: 98-01436, 336 h
[6] = Inhibition of Mycobacterium tuberculosis Anthranilate phosphoribosyltransferase expressed in Escherichia coli BL21(DE3) pRIL cells harboring PRAI-InGPS preincubated for 10 mins followed by anthranilate addition in presence of PRPP
[7] = system: Mycobacterium tuberculosis; experiment: Inhibition of Mycobacterium tuberculosis Anthranilate phosphoribosyltransferase expressed in Escherichia coli BL21(DE3) pRIL cells harboring PRAI-InGPS assessed as residual activity preincubated for 10 mins followed by anthranilate addition in presence of PRPP relative to control

N#C[C@@H]1N[C@@H](CO)[C@H]1c1ccc(-c2ccccc2F)cc1
MIC90 [1]: 1.6 µM (≈ 0.452 µg/mL) | MIC90 [2]: 3 µM (≈ 0.847 µg/mL) | MIC90 [3]: 1.6 µM (≈ 0.452 µg/mL) | MIC90 [4]: 3 µM (≈ 0.847 µg/mL) | MIC90 [5]: 1.6 µM (≈ 0.452 µg/mL)

Cc1cccc(C(=O)O)c1Nc1cc(Br)ccc1C(=O)O
IC50 [6]: 3.3 µM

Cc1cccc(C(=O)O)c1Nc1cc(Cl)ccc1C(=O)O
IC50 [6]: 5.8 µM

O=C(O)c1ccccc1Nc1cccc(Nc2ccccc2C(=O)O)c1C(=O)O
IC50 [6]: 2.2 µM | Activity [7]: 6%

Cc1ccc(C(=O)O)c(Nc2c(C)cccc2C(=O)O)c1
IC50 [6]: 6.8 µM
